Results published in BigSolDB 2.1.

O=[N+]([O-])c1cccc2ccccc12
solubility (mole fraction)
Details	273.15 K	278.15 K	283.15 K	288.15 K	293.15 K	298.15 K	303.15 K	308.15 K
in acetone	0.145	0.181	0.232	0.277	0.344	0.426	0.508	0.603
in acetonitrile	0.0535	0.0739	0.104	0.149	0.225	0.322	0.433	0.591
in cyclohexane	–	0.00743	0.0104	0.0134	0.0177	0.0261	0.0382	0.0532
in dichloromethane	0.241	0.283	0.328	0.384	0.434	0.5	0.554	0.637
in ethanol	0.00915	0.0111	0.0138	0.0173	0.0218	0.0281	0.0366	0.0467
in ethyl acetate	0.143	0.172	0.213	0.254	0.31	0.382	0.472	0.566
in isobutanol	0.00604	0.00768	0.00962	0.0123	0.0163	0.0219	0.0306	0.0424
in isopropanol	0.00588	0.00782	0.00957	0.0123	0.0163	0.022	0.0301	0.0423
in methanol	0.00637	0.00811	0.00991	0.0124	0.0155	0.0204	0.027	0.0353
in methyl acetate	0.135	0.172	0.21	0.26	0.32	0.406	0.487	0.59
in n-butanol	0.0111	0.0138	0.0169	0.0214	0.0274	0.0359	0.0493	0.0679
in n-propanol	0.0094	0.0118	0.0143	0.0176	0.0228	0.03	0.0409	0.058
